The text below walks through data of PMC8880997, “Structure and ion-release mechanism of PIB-4-type ATPases” (eLife, 2021).

In one assay the target is T1, SsZntA (Shigella sonnei, UniProt Q3YW59).
T1 construct: gene zntA; purified as in Wang et al., 2014
T1 sequence (Q3YW59 1-732): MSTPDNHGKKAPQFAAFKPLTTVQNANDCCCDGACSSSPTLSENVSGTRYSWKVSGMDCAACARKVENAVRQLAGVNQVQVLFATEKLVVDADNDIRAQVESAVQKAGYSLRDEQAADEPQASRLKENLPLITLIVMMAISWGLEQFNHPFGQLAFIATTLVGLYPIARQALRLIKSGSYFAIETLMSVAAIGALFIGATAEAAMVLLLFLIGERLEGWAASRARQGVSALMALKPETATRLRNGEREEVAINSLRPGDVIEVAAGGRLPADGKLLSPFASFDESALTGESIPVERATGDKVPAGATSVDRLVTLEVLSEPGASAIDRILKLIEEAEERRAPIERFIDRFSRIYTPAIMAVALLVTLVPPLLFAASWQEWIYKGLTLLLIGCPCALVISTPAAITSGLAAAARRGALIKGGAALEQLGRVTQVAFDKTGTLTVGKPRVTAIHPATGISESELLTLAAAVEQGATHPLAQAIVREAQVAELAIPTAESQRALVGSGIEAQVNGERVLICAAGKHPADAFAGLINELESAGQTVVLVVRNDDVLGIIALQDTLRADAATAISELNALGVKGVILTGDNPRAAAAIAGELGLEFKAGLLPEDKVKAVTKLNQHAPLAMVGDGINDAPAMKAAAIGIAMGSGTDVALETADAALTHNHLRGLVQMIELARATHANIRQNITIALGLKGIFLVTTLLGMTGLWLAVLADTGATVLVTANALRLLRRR
The assay can be described thus: Baginski ATPase assay (Pi release) in lipid-detergent. In kind it is biochemical. The following applies: 5 mM ATP, Zn2+ or Cd2+, 5 mM MgCl2, Tris-HCl pH 7.5, 37 °C; KCl titration.

Assay [1] deals with T2, sCoaT (Sulfitobacter sp. NAS-14.1, UniProt A0ABF7PH95).
T2 sequence (A0ABF7PH95 1-682): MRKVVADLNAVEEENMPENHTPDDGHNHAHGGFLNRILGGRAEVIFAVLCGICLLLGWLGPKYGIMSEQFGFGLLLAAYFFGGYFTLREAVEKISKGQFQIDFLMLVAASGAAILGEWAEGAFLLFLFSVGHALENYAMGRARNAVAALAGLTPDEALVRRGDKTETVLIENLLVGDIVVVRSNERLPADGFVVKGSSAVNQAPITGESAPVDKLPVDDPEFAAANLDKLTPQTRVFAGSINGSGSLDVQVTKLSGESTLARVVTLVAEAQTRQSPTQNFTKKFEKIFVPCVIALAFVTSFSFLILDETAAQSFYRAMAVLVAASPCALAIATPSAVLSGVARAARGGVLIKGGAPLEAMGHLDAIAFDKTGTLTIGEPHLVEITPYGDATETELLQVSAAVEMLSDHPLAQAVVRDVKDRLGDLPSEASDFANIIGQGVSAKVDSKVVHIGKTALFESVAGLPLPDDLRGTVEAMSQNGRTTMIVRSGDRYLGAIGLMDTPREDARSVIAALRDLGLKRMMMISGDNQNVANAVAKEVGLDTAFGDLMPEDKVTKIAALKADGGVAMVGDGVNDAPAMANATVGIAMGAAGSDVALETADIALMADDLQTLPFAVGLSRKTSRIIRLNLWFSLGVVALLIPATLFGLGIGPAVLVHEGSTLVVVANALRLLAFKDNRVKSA
The assay can be described thus: X-ray crystallography, […]-3.[…] Å. The arrangement: gene NAS141_02821; residues before about 40-47 not modelled. The following applies: phosphate analogue at the phosphorylation site; formed from AlCl3 and NaF with EGTA, metal-free; E2.Pi state. It is filed as binding.

In assay [2] the target is T2, sCoaT. The arrangement: gene NAS141_02821. The following applies: phosphate analogue at the phosphorylation site; formed from BeSO4 and NaF with EGTA, metal-free; late E2P state.

Turning to `Nc1ncnc2c1ncn2[C@@H]1O[C@H](COP(=O)(O)OP(=O)(O)OP(=O)(O)O)[C@@H](O)[C@H]1O` [ATP], the “Baginski ATPase assay (Pi release) in lipid-detergent” value at SsZntA was “Functional ATPase assay in lipid–detergent solution of sCoaT (wild-type and D601K forms) as well as SsZntA”.
For the compound `[F][Al-]([F])([F])[F]` [AlF4^−], on sCoaT [1], the “X-ray crystallography, 3.2-3.3 Å” value was “structures of sCoaT in metal-free conditions supplemented with two different phosphate analogues, BeF3^− and AlF4^−”.
As to `[F][Be-]([F])[F]` [BeF3^−], at sCoaT [2], the “X-ray crystallography, 3.1 Å” value is “structures of sCoaT in metal-free conditions supplemented with two different phosphate analogues, BeF3^− and AlF4^−”.
